Assay results reported in patent publication US6552061B1, “Amino acid derivatives and anti-inflammatory agents” (Ajinomoto Co., Inc., priority 1998, dated 2003).
Read-outs that look alike come from different tables or passages of the source.

Key:
Assay type in all cases: cell-based
collagenase = assay: Test for an Activity of Inhibiting Collagenase Expression (MMP-1 ELISA, UVA-irradiated human dermal fibroblasts); conditions: Fibroblast, light or radiation study, 24 h, read-out: inhibitory rate (%) of collagenase expression; for inhibition at 10 µM: concentration 10 μM
Protocol: Test for an Activity of Inhibiting Collagenase Expression
(§1) The test compound was added to human dermal fibroblasts which had become confluent in a culture plate. Eighteen hours later, the culture solution was replaced with a phenol red-free medium. The cells were subjected to UV irradiation (UVA; 20 J/cm^2) using Dermaray M-DMR-80 (supplied by Toshiba Iryo Yohin KK). After 24 hours passed, the culture solution was recovered, and the collagenase concentration in the culture solution was measured using MMP-1α·ELISA System (supplied by Amersham Corp.). The rate of inhibition of collagenase expression on the test compound was calculated using formula (VI).
Rate (%) of inhibition of collagenase expression={1−(B4−B6)/(B5−B6)}×100 (VI)
B4: collagenase concentration in the addition of the test compound
B5: collagenase concentration in the non-addition of the test compound
B6: collagenase concentration when the test compound was not added, nor was UV irradiation conducted

NF-κB = assay: Test for an Activity of Inhibiting NF-κB Activation (gel shift assay, UVB-irradiated human epidermal cells); conditions: light or radiation study, read-out: inhibitory rate (%) of NF-κB activation; for inhibition at 1000 µM: concentration 1 mM; for inhibition at 2000 µM: concentration 2 mM; for inhibition at 10 µM: concentration 10 μM; for inhibition at 50 µM: concentration 50 μM
Protocol: Test for an Activity of Inhibiting NF-κB Activation
(§2) Eighteen hours later, the culture solution was replaced with a phenol red-free medium. The cells were subjected to UV irradiation (UVB: 50 mJ/m^2)using Dermaray M-DMR-80 (supplied by Toshiba Iryo Yohin KK). After from 4 to 5 hours passed, the cells were recovered, and the nucleoproteins were extracted in a usual manner. With respect to the resulting nucleoproteins, NF-κB activated by gel shift assay was detected. The amount of NF-κB was determined by measuring a radioactivity of an NF-κB band using a bio-imaging analyzer BAS 2000 (supplied by Fuji Photo Film). The rate of inhibition of NF-κB activation on the test compound was calculated using formula (III).
Rate (%) of inhibition of NF-κB activation={1−(A1−A3)/(A2−A3)}×100 (III)
A1: radioactivity of an NF-κB band in the addition of the test compound
A2: radioactivity of an NF-κB band in the non-addition of the test compound
A3: radioactivity of an NF-κB band when the test compound was not added, nor was UV irradiation conducted

IL-1α = assay: Test for an Activity of Inhibiting IL-1α Expression (ELISA, UVB-irradiated human epidermal cells); conditions: light or radiation study, 24 h, read-out: inhibitory rate (%) of IL-1α expression; for inhibition at 20 µM: concentration 20 μM; for inhibition at 50 µM: concentration 50 μM; for inhibition at 10 µM: concentration 10 μM; for inhibition at 500 µM: concentration 0.5 mM; for inhibition at 1000 µM: concentration 1 mM; for inhibition at 10000 µM: concentration 10 mM
Protocol: Test for an Activity of Inhibiting IL-1α Expression
as §1, with “epidermal cells” for “dermal fibroblasts”, “(UVB: 50 mJ/cm^2)” for “(UVA; 20 J/cm^2)”, “IL-1α” for “collagenase”, “IL-1α·ELISA” for “MMP-1α·ELISA”, “(V).” for “(VI).”
Rate (%) of inhibition of IL-1α expression={1−(B1−B3)/(B2−B3)}×100 (V)
B1: IL-1α concentration in the addition of the test compound
B2: IL-1α concentration in the non-addition of the test compound
B3: IL-1α concentration when the test compound was not added, nor was UV irradiation conducted

AP-1 = assay: Test for an Activity of Inhibiting AP-1 Activation (gel shift assay, UVA-irradiated human dermal fibroblasts); conditions: AP1, light or radiation study, read-out: inhibitory rate (%) of AP-1 activation; for inhibition at 1 µM: concentration 1 μM; for inhibition at 500 µM: concentration 0.5 mM
Protocol: Test for an Activity of Inhibiting AP-1 Activation
as §2, with “The test compound was added to human dermal fibroblasts which had become confluent in a culture plate. Eighteen” for “Eighteen”, “(UVA: 20 J/cm^2) using” for “(UVB: 50 mJ/m^2)using”, “AP-1” for “NF-κB”, “(IV).” for “(III).”
Rate (%) of inhibition of AP-1 activation={1−(A4−A6)/(A5−A6)}×100 (IV)
A4: radioactivity of an AP-1 band in the addition of the test compound
A5: radioactivity of an AP-1 band in the non-addition of the test compound
A6: radioactivity of an AP-1 band when the test compound was not added, nor was UV irradiation conducted

**Q.** With `CCOC(=O)[C@@H](C)NCc1ccccc1O` [N-(2-hydroxybenzyl)-D-alanine ethyl ester] as the compound, how does the inhibition at 500 µM (collagenase; concentration 0.5 mM) read?
**A.** 108%

**Q.** What about the inhibition at 1000 µM (NF-κB) of the same compound?
**A.** 90%

**Q.** And the inhibition at 2000 µM (NF-κB)?
**A.** 87%

**Q.** `CCCCCCCCCCCCNC(=O)[C@@H](C)NCc1ccccc1O` [N-(2-hydroxybenzyl)-D-alanine lauryl amide] was tested. Which inhibition at 10 µM (NF-κB) did it give?
**A.** 29%

**Q.** And the inhibition at 50 µM (NF-κB)?
**A.** 97%

**Q.** What about the inhibition at 20 µM (IL-1α) of the same compound?
**A.** 25%

**Q.** And the inhibition at 50 µM (IL-1α)?
**A.** 79%

**Q.** What about the inhibition at 1 µM (AP-1) of the same compound?
**A.** 14%

**Q.** What about the inhibition at 20 µM (AP-1; concentration 20 μM) of the same compound?
**A.** 31%

**Q.** For `CCCCCCCCCCCCOC(=O)[C@@H](C)NCc1ccccc1O` [N-(2-hydroxybenzyl)-D-alanine lauryl ester], which inhibition at 50 µM (NF-κB) is on record?
**A.** 60%

**Q.** And the inhibition at 100 µM (NF-κB; concentration 100 μM)?
**A.** 59%

**Q.** What about the inhibition at 10 µM (IL-1α) of the same compound?
**A.** 35%

**Q.** And the inhibition at 50 µM (IL-1α)?
**A.** 31%

**Q.** What does the source list for `CCNC(=O)[C@H](C)NCc1ccccc1O` [N-(2-hydroxybenzyl)-L-alanine ethyl amide]?
**A.** inhibition at 1000 µM (NF-κB): 43%; inhibition at 2000 µM (NF-κB): 26%; inhibition at 500 µM (IL-1α): 81%; inhibition at 1000 µM (IL-1α): 99%; inhibition at 1000 µM (AP-1; concentration 1 mM): 52%; inhibition at 2000 µM (AP-1; concentration 2 mM): 131%

**Q.** `CCOC(=O)[C@H](C)NCc1ccccc1O` [N-(2-hydroxybenzyl)-L-alanine ethyl ester] was tested. Which inhibition at 200 µM (NF-κB; concentration 0.2 mM) did it give?
**A.** 68%

**Q.** What about the inhibition at 2000 µM (NF-κB) of the same compound?
**A.** 77%

**Q.** And the inhibition at 200 µM (IL-1α; concentration 0.2 mM)?
**A.** 61%

**Q.** And the inhibition at 2000 µM (IL-1α; concentration 2 mM)?
**A.** 100%

**Q.** And the inhibition at 500 µM (AP-1)?
**A.** 26%

**Q.** How did the inhibition at 100 µM (IL-1α; concentration 0.1 mM) turn out when `CC(C)OC(=O)[C@H](C)NCc1ccccc1O` [N-(2-hydroxybenzyl)-L-alanine isopropyl ester] was run?
**A.** 36%

**Q.** What about the inhibition at 1000 µM (IL-1α) of the same compound?
**A.** 53%

**Q.** What about the inhibition at 100 µM (AP-1; concentration 0.1 mM) of the same compound?
**A.** 20%

**Q.** And the inhibition at 500 µM (AP-1)?
**A.** 35%

**Q.** Which results are given for `C[C@H](NCc1ccccc1O)C(=O)O` [N-(2-hydroxybenzyl)-L-alanine]?
**A.** inhibition at 1000 µM (NF-κB): 20%; inhibition at 1 µM (IL-1α; concentration 1 μM): 14%; inhibition at 10 µM (IL-1α): 100%

**Q.** How did the inhibition at 500 µM (IL-1α) turn out when `CCOC(=O)[C@H](CCCNC(=N)N)NCc1ccccc1O` [N-(2-hydroxybenzyl)-L-arginine ethyl ester] was run?
**A.** 65%

**Q.** For `CCCCCCCCCCCCNC(=O)[C@H](CCCNC(=N)N)NCc1ccccc1O` [N-(2-hydroxybenzyl)-L-arginine lauryl amide], which inhibition at 10 µM (NF-κB) is on record?
**A.** 16%

**Q.** And the inhibition at 50 µM (NF-κB)?
**A.** 28%

**Q.** Which inhibition at 10 µM (collagenase) does the source give for `CCCCCCCCCCCCOC(=O)[C@H](CCCNC(=N)N)NCc1ccccc1O` [N-(2-hydroxybenzyl)-L-arginine lauryl ester] here?
**A.** 52%

**Q.** Which inhibition at 1000 µM (NF-κB) does the source give for `CCOC(=O)[C@H](CC(C)C)NCc1ccccc1O` [N-(2-hydroxybenzyl)-L-leucine ethyl ester] here?
**A.** 84%

**Q.** And the inhibition at 2000 µM (NF-κB)?
**A.** 57%

**Q.** For `CCCCCCCCCCCCOC(=O)[C@H](CC(C)C)NCc1ccccc1O` [N-(2-hydroxybenzyl)-L-leucine lauryl ester], which inhibition at 10 µM (collagenase) is on record?
**A.** 21%

**Q.** What about the inhibition at 10 µM (NF-κB) of the same compound?
**A.** 21%

**Q.** And the inhibition at 20 µM (NF-κB; concentration 20 μM)?
**A.** 23%

**Q.** Which inhibition at 100 µM (IL-1α; concentration 0.1 mM) does the source give for `CCOC(=O)[C@H](Cc1ccccc1)NCc1ccccc1O` [N-(2-hydroxybenzyl)-L-phenylalanine ethyl ester] here?
**A.** 25%

**Q.** Which results are given for `CCOC(=O)[C@@H]1CCC(=O)N1Cc1ccccc1O` [N-(2-hydroxybenzyl)-L-pyroglutamic acid ethyl ester]?
**A.** inhibition at 1000 µM (NF-κB): 53%; inhibition at 2000 µM (NF-κB): 85%; inhibition at 500 µM (IL-1α): 84%; inhibition at 1000 µM (IL-1α): 55%

**Q.** What does the source list for `CCCCCCCCCCCCOC(=O)[C@H](CO)NCc1ccccc1O` [N-(2-hydroxybenzyl)-L-serine lauryl ester]?
**A.** inhibition at 50 µM (NF-κB): 79%; inhibition at 10 µM (IL-1α): 12%; inhibition at 100 µM (IL-1α; concentration 100 μM): 31%; inhibition at 1 µM (AP-1): 43%; inhibition at 10 µM (AP-1; concentration 10 μM): 49%

**Q.** With `O=C(O)[C@H](CO)NCc1ccccc1O` [N-(2-hydroxybenzyl)-L-serine] as the compound, how does the inhibition at 10000 µM (NF-κB; concentration 10 mM) read?
**A.** 17%

**Q.** And the inhibition at 30000 µM (NF-κB; concentration 30 mM)?
**A.** 34%

**Q.** What about the inhibition at 10000 µM (IL-1α) of the same compound?
**A.** 62%

**Q.** And the inhibition at 30000 µM (IL-1α; concentration 30 mM)?
**A.** 70%

**Q.** Which results are given for `CCNC(=O)[C@H](Cc1ccc(O)cc1)NCc1ccccc1O` [N-(2-hydroxybenzyl)-L-tyrosine ethyl amide]?
**A.** inhibition at 1000 µM (NF-κB): 72%; inhibition at 2000 µM (NF-κB): 28%

**Q.** `CCOC(=O)[C@H](Cc1ccc(O)cc1)NCc1ccccc1O` [N-(2-hydroxybenzyl)-L-tyrosine ethyl ester] was tested. Which inhibition at 100 µM (NF-κB; concentration 0.1 mM) did it give?
**A.** 64%

**Q.** What about the inhibition at 500 µM (NF-κB; concentration 0.5 mM) of the same compound?
**A.** 81%

**Q.** How did the inhibition at 10 µM (collagenase) turn out when `CCOC(=O)CNCc1ccccc1O` [N-(2-hydroxybenzyl)glycine ethyl ester] was run?
**A.** 39%

**Q.** And the inhibition at 100 µM (collagenase; concentration 100 μM)?
**A.** 46%

**Q.** How did the inhibition at 20 µM (IL-1α) turn out when `CCCCCCCCCCCCNC(=O)CNCc1ccccc1O` [N-(2-hydroxybenzyl)glycine lauryl amide] was run?
**A.** 13%

**Q.** And the inhibition at 50 µM (IL-1α)?
**A.** 45%

**Q.** What does the source list for `O=C(O)CNCc1ccccc1O` [N-(2-hydroxybenzyl)glycine]?
**A.** inhibition at 5000 µM (NF-κB; concentration 5 mM): 36%; inhibition at 5000 µM (IL-1α; concentration 5 mM): 26%; inhibition at 10000 µM (IL-1α): 88%

**Q.** How did the inhibition at 5 µM (NF-κB; concentration 5 μM) turn out when `S=C(S)N1CCCC1` [pyrrolidinedithiocarbamate, reference compound] was run?
**A.** -9%

**Q.** What about the inhibition at 10 µM (NF-κB) of the same compound?
**A.** 9%

**Q.** And the inhibition at 5 µM (IL-1α; concentration 5 μM)?
**A.** -45%
